Patent US20240391958A1, “KEANUMYCINS AND USES THEREOF IN MEDICINE AND PLANT PROTECTION” (Leibniz-Institut für Naturstoff-Forschung und …, priority 2023, published 2024)
In brackets after ≈: the same amount, converted by molar mass. Several values for one entry are separate records, joined by “and”; a condition that tells them apart may be missing. Equal values may be shown once. Read-outs that look alike come from different tables or passages of the source. Where a SMILES comes first, the peptide text is derived from it. Bridges are numbered along the chain shown (N, C = ends). [ ]: non-standard residue; d: D form. The star is where a group is joined. X1 = CCCCCCCCCCCC[C@@H](O)[C@@H](O)CC(=O)*; Asp(3S-OH) = N[C@H](C(=O)O)[C@H](O)C(=O)O; Thr(4-Cl) = N[C@H](C(=O)O)[C@H](O)CCl; aThr = C[C@H](O)[C@H](N)C(=O)O; d(hSer) = N[C@H](CCO)C(=O)O; dDab = NCC[C@@H](N)C(=O)O; Dab = NCC[C@H](N)C(=O)O; Dhb = C/C=C(\N)C(=O)O

Legend:
A. castellanii = assay: Amoebicidal activity against Acanthamoeba (resazurin assay); type: cell-based; settings: 96 h, 28 °C, average of two experiments
Procedure: (§1) Amoebicidal activity of keanumycin A against Acanthamoeba was determined by culturing A. castellanii or A. comandoni in 96-well plates (Sarstedt) in 100 μL PYG medium (ATCC Medium 712; https://www.atcc.org) containing 1% DMSO (Carl Roth) and a specified amount of compound (starting from 50 μM; 2-fold serial dilution) in triplicates at 28° C. After 96 h the cell viability was determined using a resazurin assay. Therefore, 20 μL of a 1 mM resazurin sodium (Sigma) solution in water was added per single well before it was allowed to incubate for another 3 h at 28° C. Using a plate reader (Tecan Life Sciences, excitation 560 nm and emission 590 nm) the fluorescence emission was determined. The fluorescence (including standard deviation) was plotted against the logarithmic concentration of the compound and the IC50 value was determined using PRISM (GraphPad, Version 5.03).

A. comandoni = assay: as above; type: cell-based; settings: 96 h, 28 °C, average of two experiments
Procedure: as §1

[1] = tested on: human chronic myeloid leukemia cells K-562 (DSM ACC 10); assay: Antiproliferative effect; type: cell-based
Procedure: (§2) Keanumycin A was assayed for antiproliferative effects (GI50) using human umbilical vein endothelial cells HUVEC (ATCC CRL-1730) and human chronic myeloid leukemia cells K-562 (DSM ACC 10) and for their cytotoxic effects (CC50) using human cervix carcinoma cells HeLa (DSM ACC 57) as previously described). The test compounds were dissolved in DMSO (10 mg mL-1).

[2] = tested on: human umbilical vein endothelial cells HUVEC (ATCC CRL-1730); assay: Antiproliferative effect; type: cell-based
Procedure: as §2

Cytotoxicity = type: cell-based; settings: human, HeLa cervix carcinoma cells (DSM ACC 57)
Procedure: as §2

[3] = tested on: Aspergillus fumigatus ATCC 204305; assay: Broth dilution method (EUCAST); type: cell-based; settings: Aspergillus fumigatus
Procedure: (§3) The activity assay was performed using the broth dilution method according to the EUCAST DEFINITIVE DOCUMENT E.DEF 9.3.2. B. cinerea and A. solani were incubated according to the Methods for dilution antimicrobial susceptibility tests for bacteria that grow aerobically by the NCCLS. Keanumycin A was dissolved in DMSO.

Candida auris 2021-353 = assay: Broth dilution method (EUCAST); type: cell-based
Procedure: as §3

[4] = tested on: Candida glabrata 2021-359; assay: Broth dilution method (EUCAST); type: cell-based
Procedure: as §3

[5] = tested on: Candida parapsilosis ATCC 22019; assay: Broth dilution method (EUCAST); type: cell-based; settings: Lodderomyces parapsilosis
Procedure: as §3

[6] = tested on: Candida tropicalis 2021-360; assay: Broth dilution method (EUCAST); type: cell-based
Procedure: as §3

[7] = tested on: Fusarium proliferatum 2021-361; assay: Broth dilution method (EUCAST); type: cell-based
Procedure: as §3

[8] = tested on: Rhizopus arrhizus 2021-366; assay: Broth dilution method (EUCAST); type: cell-based
Procedure: as §3

[9] = tested on: Scedosporium apiospermum 2016-079; assay: Broth dilution method (EUCAST); type: cell-based
Procedure: as §3

[10] = tested on: Alternaria solani SF003858; assay: Broth dilution method (NCCLS); type: cell-based; settings: 22 °C
Procedure: as §3

[11] = tested on: Botrytis cinerea SF011406; assay: Broth dilution method (NCCLS); type: cell-based
Procedure: as §3

[12] = tested on: human vaginal epithelial cells A431; assay: Toxicity to uninfected vaginal epithelial cells (LDH); type: cell-based; settings: A431 cells without infection, 24 hours
Procedure: FIGS. 7A-7B show in 7A) Keanumycin A protected human vaginal epithelial cells in C. albicans infection model. Micrograph depicts % damage to human vaginal epithelial cells A431 (y-axis) in the presence of keanumycin A at varied concentrations (x-axis) as estimated by LDH cytotoxicity assay after 24 hours of infection or treatment. LDH absorbance was normalized to C. albicans infected and uninfected controls. Keanumycin A protected vaginal cells from damage by C. albicans at a narrow concentration range from 4-8 μg/ml (black line). Keanumycin A was toxic to vaginal cells at concentrations above 8 μg/ml (grey line) (N=3). […] Vaginal epithelial cells were lysed after 24-hour infection, and fungal viability was measured by XTT absorbance, normalized to C. albicans infected and uninfected controls (N=2) […]
Overnight culture of C. albicans strain SC5314 grown in YPD at 30° C., shaking at 180 RPM was harvested, washed twice with PBS. […] Epithelial damage was measured 24 hours after infection by collecting and diluting the supernatant 1:10 in PBS and measuring the lactate dehydrogenase (LDH) activity with the Roche Cytotoxicity Detection Kit (LDH) as per manufacturer's instructions. The absorbance (490 nm) values are represented as percentage damage, which is normalized to the low control, where medium only is 0% damage, and high control, where C. albicans infection is 100% damage. […]

C. albicans = assay: Genome-wide microarray, transcription rate change; type: cell-based, Candida albicans; settings: sublethal concentration, 1-h exposure, vs nontreated

C/C=C1\NC(=O)[C@H]([C@H](C)O)NC(=O)[C@H](CCN)NC(=O)[C@@H](CCO)NC(=O)CNC(=O)[C@@H](CCN)NC(=O)[C@@H](NC(=O)C[C@H](O)[C@H](O)CCCCCCCCCCCC)COC(=O)[C@H]([C@H](O)CCl)NC(=O)[C@H]([C@H](O)C(=O)O)NC1=O [Keanumycin A, keanumycin A] (X1-S[dDab]G[d(hSer)][Dab][aThr][Dhb][Asp(3S-OH)][Thr(4-Cl)]; ester 1-C) gave an IC50 (A. castellanii) of 2000 nM, an IC50 (A. comandoni) of 3.1 µM and a GI50 ([1]; K562) of 26.8 µg/mL. For the same molecule, the GI50 ([1]; K562, K-562, converted value, read-out: GI50) was 23 µM, the GI50 [2] was ≥ 50 µg/mL and the GI50 ([2]; converted value, read-out: GI50) was > 43 µM. For the same molecule, the CC50 (Cytotoxicity) was 34.9 µg/mL, the CC50 (Cytotoxicity; HeLa, converted value) was 30 µM and the MIC ([3]; ATCC204305) was 3.42 µM and 4 µg/mL. For the same molecule, the MIC ([3]; ATCC204305, read-out: Result of the broth dilution method assay (MIC)) was 4 µg/mL (≈ 3.43 µM), the MIC (Candida auris 2021-353; Candidozyma auris, 2021353) was 0.86 µM and 1 µg/mL and the MIC (Candida auris 2021-353; Candidozyma auris, 2021353, read-out: Result of the broth dilution method assay (MIC)) was 0.5 to 1 µg/mL (≈ 0.429 to 0.857 µM). The MIC ([4]; Nakaseomyces glabratus, 2021359) was 0.86 µM and 1 µg/mL, the MIC ([4]; Nakaseomyces glabratus, 2021359, read-out: Result of the broth dilution method assay (MIC)) was 1 µg/mL (≈ 0.857 µM) and the MIC ([5]; ATCC22019) was 0.86 µM and 1 µg/mL. For the same molecule, the MIC ([5]; ATCC22019, read-out: Result of the broth dilution method assay (MIC)) was 1 µg/mL (≈ 0.857 µM), the MIC ([6]; Candida tropicalis, 2021360) was 0.86 µM and 1 µg/mL and the MIC ([6]; Candida tropicalis, 2021360, read-out: Result of the broth dilution method assay (MIC)) was 1 µg/mL (≈ 0.857 µM). The MIC [7] was > 6.85 µM and > 8 µg/mL, the MIC ([7]; Fusarium proliferatum, 2021361, read-out: Result of the broth dilution method assay (MIC)) was > 8 µg/mL and the MIC ([8]; Rhizopus arrhizus, 2021366) was > 6.85 µM and > 8 µg/mL. For the same molecule, the MIC ([8]; Rhizopus arrhizus, 2021366, read-out: Result of the broth dilution method assay (MIC)) was > 8 µg/mL, the MIC ([9]; Scedosporium apiospermum, 2016079) was 6.85 µM and 8 µg/mL and the MIC ([9]; Scedosporium apiospermum, 2016079, read-out: Result of the broth dilution method assay (MIC)) was 8 µg/mL (≈ 6.86 µM). For the same molecule, the MIC [10] was 1.07 µM and 1.25 µg/mL, the MIC ([11]; Botrytis cinerea SF011406, NCCLS, 22 °C) was 80 µg/L and the MIC ([11]; Botrytis cinerea, SF011406, Botrytis cinerea, NCCLS, 22 °C, read-out: MIC) was 0.07 µM. For the same molecule, the MIC ([11]; Botrytis cinerea, SF011406, Botrytis cinerea, read-out: MIC) was 0.069 µM, the “concentrations toxic to vaginal cells” value [12] was “above 8 μg/ml” and the “transcription rate change, ERG3” value (C. albicans; ergosterol biosynthesis) was −1.83 log2-fold change. For the same molecule, the “transcription rate change, IPT1” value (C. albicans; sphingolipid biosynthesis) was −0.44 log2-fold change, the “transcription rate change, ORM1” value (C. albicans; sphingolipid biosynthesis) was 0.55 log2-fold change and the “transcription rate change, SCS7/FAH1” value (C. albicans; sphingolipid biosynthesis) was −1.10 log2-fold change. For the same molecule, the “transcription rate change, SYR2/SUR2” value (C. albicans; sphingolipid biosynthesis) was 0.66 log2-fold change.
